Laboratory results taken from PMC7827085 (Pharmaceutics, 2021).

Assays:
ABCB1/Pgp = target: T1, ABCB1/Pgp (Homo sapiens, UniProt P08183); assay: ABCB1-ATPase activity in Sf9 membrane vesicles; format: biochemical
T1 construct: made in house; host or cells: Sf9 insect cells
Protocol: ABC transporter ATPase activity was measured in Sf9 membrane vesicles containing the respective human ABC transporters. For ABCG2/BCRP, the cholesterol level in the vesicles was increased to the level of mammalian cell membranes for full activity. For ABCB1/Pgp 20 μg/150 μL and for ABCG2/BCRP 10 μg/150 μL, vesicles were incubated with 3 mM Mg-ATP for 25 min at 37 °C. The test drugs were dissolved in DMSO and 1 µL was added to the samples. The ABC transporter-related ATPase activity was determined and reference activators (50 µM verapamil for ABCB1 and 5 µM quercetin for ABCG2) served as controls.
Drug-stimulated ATPase activity of the ABCB1 transporter is a well-documented functional assay employed to estimate the substrate or inhibitory features of various drugs. […] In this assay, most transported substrates show a biphasic curve: Low concentrations stimulate, while higher concentrations inhibit, the ATPase activity. In these experiments, we measured the vanadate-sensitive (ABC transporter-related) ABCB1-ATPase activity in membrane vesicles isolated from ABCB1 overexpressing Sf9 cells.

OATP1A2 = target: T2, OATP1A2 (Homo sapiens, UniProt P46721); settings: based on the IC50 values
T2 sequence (P46721 1-670): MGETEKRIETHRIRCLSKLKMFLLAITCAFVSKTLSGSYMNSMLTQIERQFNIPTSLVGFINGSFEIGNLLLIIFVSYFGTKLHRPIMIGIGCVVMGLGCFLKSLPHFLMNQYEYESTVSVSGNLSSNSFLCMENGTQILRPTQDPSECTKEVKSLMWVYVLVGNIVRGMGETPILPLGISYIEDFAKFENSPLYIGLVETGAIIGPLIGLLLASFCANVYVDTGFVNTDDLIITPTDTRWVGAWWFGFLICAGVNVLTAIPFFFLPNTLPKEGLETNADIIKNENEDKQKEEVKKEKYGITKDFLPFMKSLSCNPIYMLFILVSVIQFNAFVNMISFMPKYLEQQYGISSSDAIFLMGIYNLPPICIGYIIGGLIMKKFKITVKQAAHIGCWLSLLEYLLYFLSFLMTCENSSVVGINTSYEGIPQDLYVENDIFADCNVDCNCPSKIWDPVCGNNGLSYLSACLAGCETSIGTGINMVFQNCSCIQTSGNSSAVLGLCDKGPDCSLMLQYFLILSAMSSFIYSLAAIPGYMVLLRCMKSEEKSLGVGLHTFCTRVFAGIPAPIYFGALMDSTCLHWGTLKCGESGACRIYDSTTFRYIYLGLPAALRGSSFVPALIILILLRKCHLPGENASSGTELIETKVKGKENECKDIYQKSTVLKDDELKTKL

T1 sequence (P08183 whole entry): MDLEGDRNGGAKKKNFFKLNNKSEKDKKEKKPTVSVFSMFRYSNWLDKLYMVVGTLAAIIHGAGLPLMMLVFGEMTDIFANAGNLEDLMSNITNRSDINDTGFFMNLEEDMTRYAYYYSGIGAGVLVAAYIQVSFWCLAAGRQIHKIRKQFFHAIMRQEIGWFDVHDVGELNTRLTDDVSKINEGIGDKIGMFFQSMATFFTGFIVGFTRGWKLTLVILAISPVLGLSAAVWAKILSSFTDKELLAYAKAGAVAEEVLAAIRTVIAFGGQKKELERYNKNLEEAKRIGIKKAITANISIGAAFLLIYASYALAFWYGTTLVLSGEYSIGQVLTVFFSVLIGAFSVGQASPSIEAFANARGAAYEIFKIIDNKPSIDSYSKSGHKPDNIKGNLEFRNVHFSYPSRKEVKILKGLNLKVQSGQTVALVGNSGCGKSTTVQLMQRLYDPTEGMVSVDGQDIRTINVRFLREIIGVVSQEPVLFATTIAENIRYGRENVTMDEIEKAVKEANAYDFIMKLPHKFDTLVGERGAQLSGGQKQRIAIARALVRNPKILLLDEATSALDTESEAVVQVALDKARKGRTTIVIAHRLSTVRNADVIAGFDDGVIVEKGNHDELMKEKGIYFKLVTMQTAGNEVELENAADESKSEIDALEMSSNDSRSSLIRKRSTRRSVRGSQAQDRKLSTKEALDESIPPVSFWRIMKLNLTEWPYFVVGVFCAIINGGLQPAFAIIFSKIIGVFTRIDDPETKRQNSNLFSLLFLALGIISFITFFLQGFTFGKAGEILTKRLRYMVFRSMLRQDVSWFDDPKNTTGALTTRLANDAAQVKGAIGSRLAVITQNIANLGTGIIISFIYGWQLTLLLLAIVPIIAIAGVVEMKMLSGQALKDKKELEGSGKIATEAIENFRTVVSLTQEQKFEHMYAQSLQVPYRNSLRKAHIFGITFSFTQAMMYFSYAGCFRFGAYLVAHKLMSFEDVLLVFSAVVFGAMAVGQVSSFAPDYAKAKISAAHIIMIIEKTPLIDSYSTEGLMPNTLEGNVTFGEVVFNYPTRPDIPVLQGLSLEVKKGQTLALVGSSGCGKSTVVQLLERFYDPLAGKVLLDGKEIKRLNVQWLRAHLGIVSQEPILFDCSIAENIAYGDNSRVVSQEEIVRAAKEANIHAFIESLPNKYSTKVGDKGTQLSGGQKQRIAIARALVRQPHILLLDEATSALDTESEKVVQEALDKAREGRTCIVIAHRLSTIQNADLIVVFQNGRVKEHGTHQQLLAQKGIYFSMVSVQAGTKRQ

SMILES	EC50 (ABCB1/Pgp)	Concentration at which ABCB1-ATPase activity was increased (ABCB1/Pgp; Sf9/ABCB1 membranes)	Effect on ABCB1-ATPase activity (in words) (ABCB1/Pgp; Sf9/ABCB1 membranes, 50 µM verapamil as reference activator)	Fold lower affinity for OATP1A2 than lopinavir, ritonavir, remdesivir and ivermectin (OATP1A2)
CCC(CC)COC(=O)[C@H](C)N[P@](=O)(OC[C@H]1O[C@@](C#N)(c2ccc3c(N)ncnn23)[C@H](O)[C@@H]1O)Oc1ccccc1 [remdesivir]	~10 µM	10 to 50 µM	significant ABCB1-ATPase stimulation	–
CCN(CCO)CCCC(C)Nc1ccnc2cc(Cl)ccc12 (stereo not shown) [hydroxychloroquine]	–	–	–	3–10 fold
